Measured values as given in patent US20050288347A1, “Certain triazole-based compounds, compositions, and uses thereof” (priority 2004, published 2005).
Entries after “also recorded” stand apart in the source; their conditions may differ. Like-named read-outs stand apart in the source and are kept apart here.

Biological target: protein kinase
Test: HTS ATP-utilizing enzyme assay, off-chip mobility-shift format (Caliper HTS 250)
Type: biochemical, human
Outline: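 Single-point screen at 10 μM compound in HEPES pH 7.5 buffer with Triton X-100 and BSA, 2.5 h at 20–22 °C. Substrate-to-phosphopeptide ratio measured by off-chip microfluidic mobility shift; EDTA wells as 100% and DMSO wells as 0% control, hits called at three-sigma limits.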

[1] = kinase(s) for which the compound exhibits protein kinase inhibitory activity, test compound 10 μM, active = greater than three-sigma from the mean activity of inactive compounds
[2] = test compound 10 μM, active = activity greater than three-sigma from the mean of the predominately inactive population for that enzyme

Row | SMILES | Kinase [1] | protein kinase against which the compound exhibits inhibitory activity (Table 3) [2] | other results
1 | OCC(O)CSc1nnc(-c2cccc(Cl)c2)[nH]1 (stereo not drawn) [3-(5-(3-chlorophenyl)-4H-1,2,4-triazol-3-ylthio)propane-1,2-diol] | – | AURORA-A; also recorded: FLT-3; also recorded: CHEK2 | –
2 | CCn1c(SCC(=O)Nc2nc3ccccc3s2)nnc1-c1cccnc1 | GSK3-β; also recorded: GSK3-α; also recorded: CDK2-cyclinE | – | –
3 | Nc1nncn1C(=O)Cc1ccc(Cl)cc1 [1-(3-amino-4H-1,2,4-triazol-4-yl)-2-(4-chlorophenyl)ethanone] | GSK-3-α; also recorded: GSK-3-β | – | –
4 | O=[N+]([O-])c1ccc(-c2nnc(SCCN3CCOCC3)[nH]2)cc1 [4-(2-(5-(4-nitrophenyl)-4H-1,2,4-triazol-3-ylthio)ethyl)morpholine] | – | GSK3-β; also recorded: GSK3-α; also recorded: AURORA-A | –
5 | Cc1ccc(OCc2nnc(SCC#N)n2C)cc1 [2-(4-methyl-5-(p-tolyloxymethyl)-4H-1,2,4-triazol-3-ylthio)acetonitrile] | CSK | – | –
6 | C=C(C)Cn1c(S)nnc1-c1ccccc1OC [5-(2-methoxyphenyl)-4-(2-methylallyl)-4H-1,2,4-triazole-3-thiol] | CDK2-cyclinE | – | –
7 | Sc1nnc(CNc2cccc(Cl)c2)n1CCc1ccccc1 [5-((3-chlorophenylamino)methyl)-4-phenethyl-4H-1,2,4-triazole-3-thiol] | GSK3-α; also recorded: GSK3-β; also recorded: AURORA-A | – | –
8 | O=[N+]([O-])c1ccc(-c2nnc(SCc3ccncc3)[nH]2)cc1 [4-((5-(4-nitrophenyl)-4H-1,2,4-triazol-3-ylthio)methyl)pyridine] | – | FLT-3; also recorded: GSK3-β; also recorded: GSK3-α | –
9 | COc1ccc(-c2nnc(SCc3ccccc3C#N)[nH]2)cc1 [2-((5-(4-methoxyphenyl)-4H-1,2,4-triazol-3-ylthio)methyl)benzonitrile] | – | AURORA-A; also recorded: CHEK2; also recorded: GSK3-α | –
10 | CCOC(=O)c1ccc(CSc2nnc(-c3ccc(OC(F)(F)F)cc3)[nH]2)o1 | – | FLT-3; also recorded: GSK3-β | –
11 | CCn1c(CNc2ccc(OC)cc2)nnc1SCc1c(F)cccc1Cl | – | PDGFRR-α and FYN and FLT-3 | –
12 | O=C1c2ccccc2C(=O)N1CCSc1nnc(-c2ccc([N+](=O)[O-])cc2)[nH]1 [2-(2-(5-(4-nitrophenyl)-4H-1,2,4-triazol-3-ylthio)ethyl)isoindoline-1,3-dione] | – | GSK3-α | –
13 | O=C(CSc1nnc(CCN2CCOCC2)n1-c1ccc(F)cc1)c1ccccc1 | FYN | – | –
14 | O=C(O)CSc1nnc(-c2ccco2)n1CC1CCCO1 (stereo not drawn) | AURORA-A | – | –
15 | O=C(O)c1ccc(CSc2nnc(-c3cccc(Cl)c3)[nH]2)cc1 [4-((5-(3-chlorophenyl)-4H-1,2,4-triazol-3-ylthio)methyl)benzoic acid] | – | FLT-3; also recorded: DYRK2; also recorded: AURORA-A | –
16 | Cn1c(S)nnc1C1CCCCC1 [5-cyclohexyl-4-methyl-4H-1,2,4-triazole-3-thiol] | AKT1 | – | –

Row | SMILES | Kinase [1] | protein kinase against which the compound exhibits inhibitory activity (Table 3) [2] | other results
17 | CCn1c(C)nnc1SCc1ccccc1 [3-(benzylthio)-4-ethyl-5-methyl-4H-1,2,4-triazole] | – | GSK3-α | –
18 | Cn1c(SCC(=O)NCc2ccc3c(c2)OCO3)nnc1-c1cc2ccccc2cc1O | – | – | Kinase: CSK
19 | Cc1ccc(-n2c(S)nnc2CCc2nc3ccccc3[nH]2)cc1 [5-(2-(1H-benzo[d]imidazol-2-yl)ethyl)-4-p-tolyl-4H-1,2,4-triazole-3-thiol] | GSK3-α; also recorded: GSK3-β | – | –
20 | Cn1c(SCC(=O)Nc2cccc(NC(=O)c3ccco3)c2)nnc1-c1ccncc1 | GSK3-β; also recorded: AURORA-A; also recorded: GSK3-α | – | –
21 | CCn1c(CNc2ccc(OC)cc2)nnc1SCc1ccc(Cl)cc1 | – | PDGFRR-α and FYN( | –
22 | COc1ccc(-c2nnc(SCC(O)CO)[nH]2)cc1 (stereo not drawn) [3-(5-(4-methoxyphenyl)-4H-1,2,4-triazol-3-ylthio)propane-1,2-diol] | – | AURORA-A; also recorded: FLT-3; also recorded: DYRK2 | –
23 | COc1ccccc1-n1c(SCCC(=O)Nc2cc(NC(=O)c3ccco3)ccc2C)nnc1-c1ccccc1 | – | – | protein kinase against which the compound exhibits inhibitory activity (Table 3): MAPKAPK-3
24 | Cn1c(SCC(=O)Nc2nc3c(s2)CCCC3)nnc1-c1ccc(O)cc1 | GSK3-β; also recorded: GSK3-α; also recorded: CDK2-cyclinE | – | –
25 | COc1ccc(-n2c(Cc3ccccc3)nnc2SC)cc1 [3-benzyl-4-(4-methoxyphenyl)-5-(methylthio)-4H-1,2,4-triazole] | – | AKT1 | –
26 | COc1ccc(-n2c(SCC#N)nnc2-c2cccnc2)cc1 | AURORA-A | – | –
27 | CC(Sc1nnc(-c2cccnc2)n1-c1ccccc1)C(=O)O (stereo not drawn) [2-(4-phenyl-5-(pyridin-3-yl)-4H-1,2,4-triazol-3-ylthio)propanoic acid] | AURORA-A | – | –
28 | NC(=O)CSc1nnc(-c2ccc(OC(F)(F)F)cc2)[nH]1 | – | AURORA-A; also recorded: GSK3-β; also recorded: DYRK2 | –
29 | Cc1cccc(-c2nnc(SCC(N)=O)[nH]2)c1 [2-(5-m-tolyl-4H-1,2,4-triazol-3-ylthio)acetamide] | – | CHEK2; also recorded: AURORA-A; also recorded: FLT-3 | –
30 | O=[N+]([O-])c1ccc(-c2nnc(SCC(O)CO)[nH]2)cc1 (stereo not drawn) [3-(5-(4-nitrophenyl)-4H-1,2,4-triazol-3-ylthio)propane-1,2-diol] | – | AURORA-A; also recorded: FLT-3; also recorded: DYRK2 | –
31 | COc1ccccc1-n1c(SCCC2COCCN2)nnc1-c1cccc(Cl)c1 (stereo not drawn) | – | ROCK2 | –
32 | CC(C)Cc1nnc(SCc2ccccc2)n1Cc1ccc(Cl)c(Cl)c1 [3-(benzylthio)-4-(3,4-dichlorobenzyl)-5-isobutyl-4H-1,2,4-triazole] | – | AURORA-A | –

Second part, led by results:

Row | Kinase [1] | protein kinase against which the compound exhibits inhibitory activity (Table 3) [2] | SMILES | other results
33 | PDGFRR-α | – | CCOc1cc(NC(=O)c2cccs2)c(OCC)cc1NC(=O)CSc1nnc(-c2ccc(O)cc2)n1C | –
34 | – | GSK3-β; also recorded: GSK3-α | O=C(O)CCSc1nnc(-c2ccc(O)cc2)n1-c1cccc(Cl)c1 | –
35 | GSK3-α and GSK3-β and PAK2 | – | NC(=O)c1c(NC(=O)CSc2nnc(-c3ccccc3)n2Cc2ccco2)sc2c1CCC2 | –
36 | CHEK2 | – | COCCCn1c(SCC(=O)O)nnc1-c1ccc(C(C)(C)C)cc1 | –
37 | CDK2-cyclinE | – | Cc1cccc(-c2nnc(SCC(=O)Nc3cccc(C(F)(F)F)c3)n2C)c1 | –
38 | GSK3-β; also recorded: GSK3-α | – | CCn1c(SCC(=O)Nc2nccs2)nnc1-c1ccc(S(=O)(=O)N2CCCC2)cc1 | –
39 | GSK3-β and GSK3-α and ABL1 | – | O=C(CSc1nnc(-c2ccncc2)n1CC1CCCO1)Nc1nccs1 (stereo not drawn) | –
40 | AURORA-A | – | CCn1c(CNc2ccc(C)cc2)nnc1SCC(=O)Nc1ccccc1OC | –
41 | – | LCK | Cc1ccc(C(=O)NNC(=O)CSc2nnc(COc3ccc(C#N)cc3)n2-c2ccccc2)cc1 | –
42 | FYN | – | Cc1cc(NC(=O)CSc2nnc(-c3cccnc3)n2-c2ccc(F)cc2)no1 | –
43 | DAPK1 | – | COCCn1c(SCC(=O)OC2CCCCC2)nnc1-c1cc2ccccc2cc1O | –
44 | CDK1 | – | COc1ccc(NC(=O)CSc2nnc(-c3ccccc3O)n2-c2ccccc2)c(OC)c1 | –
45 | – | FYN and FLT-3 and SYK | COc1ccccc1-n1c(SCC(=O)NN(O)C(=O)c2ccccc2)nnc1-c1ccccc1O | –
46 | – | MAPKAPK-2 | CCn1c(SCc2ccc(C(C)(C)C)cc2)nnc1-c1ccncc1 [4-(5-(4-tert-butylbenzylthio)-4-ethyl-4H-1,2,4-triazol-3-yl)pyridine] | –
47 | CHEK2 and AKT1 | – | COc1ccc(-n2c(SCC#N)nnc2-c2ccc(NC(=O)c3ccccc3)cc2)cc1 | –
48 | – | CDK1 | COc1ccc(-c2nnc(SCc3ccc(Cl)cc3)n2-c2ccccc2)cc1OC [3-(4-chlorobenzylthio)-5-(3,4-dimethoxyphenyl)-4-phenyl-4H-1,2,4-triazole] | –

Row | Kinase [1] | protein kinase against which the compound exhibits inhibitory activity (Table 3) [2] | SMILES | other results
49 | AURORA-A | – | Cn1c(SCC(=O)CC(=O)Nc2ccccc2)nnc1-c1ccc(O)cc1 | –
50 | PAK2 and AURORA-A and FYN | – | CCOc1ccc(NCc2nnc(SCC(=O)Nc3cc(C(F)(F)F)ccc3Cl)n2-c2ccc(OC)cc2)cc1 | –
51 | GSK3-α | – | CCn1c(CSc2nc(C)cc(C)n2)nnc1SCC(=O)Nc1nccs1 | –
52 | GSK3-β; also recorded: GSK3-α | – | O=C(CSc1nnc(-c2ccc(O)cc2)n1-c1ccccc1)NCc1ccco1 | –
53 | FYN | – | CCn1c(SCC(=O)Nc2nc(C)cs2)nnc1-c1ccc(S(=O)(=O)N2CCN(C)CC2)cc1 | –
54 | CDK5 and CDK2-cyclinA and CDK2-cyclinE | – | Oc1ccc(-c2nnc(S)n2-c2cccc(Cl)c2)cc1 [4-(4-(3-chlorophenyl)-5-mercapto-4H-1,2,4-triazol-3-yl)phenol] | –
55 | PDGFRR-α and AURORA-A and FYN | – | COC(=O)c1ccccc1NC(=O)CSc1nnc(CNc2ccc(OC)cc2)n1-c1ccc(C)cc1 | –
56 | GSK3-α | – | O=C(CSc1nnc(-c2ccccc2O)n1Cc1ccco1)OCc1ccccc1 | –
57 | CHEK2 | – | COc1ccc(-n2c(SCC(=O)O)nnc2-c2ccc(NC(=O)c3ccccc3)cc2)cc1 | –
58 | AURORA-A | – | COc1ccc(-n2c(COc3ccc4ccccc4c3)nnc2SCC(=O)O)cc1 | –
59 | AURORA-A | – | CCOC(=O)CN(C(=O)CSc1nnc(-c2ccccc2O)n1CCc1ccccc1)c1cccc([N+](=O)[O-])c1 | –
60 | – | PDGFRR-α and FYN and FLT-3 | COc1ccc(NCc2nnc(SCC(=O)NNC(=O)c3ccc(C)cc3)n2C)cc1 | –
61 | FYN | – | CCOc1ccc(NCc2nnc(SCC#N)n2-c2ccc(C)cc2)cc1 | –
62 | CDK5 and CDK2-cyclinA and CDK2-cyclinE | – | Cn1c(S)nnc1-c1ccc(O)cc1 [4-(5-mercapto-4-methyl-4H-1,2,4-triazol-3-yl)phenol] | –
63 | GSK3-α; also recorded: GSK3-β | – | O=C(CSc1nnc(-c2ccc(O)cc2)n1Cc1ccccc1)OC1CCCCC1 | –
